We go through one compound from ChEMBL document CHEMBL1130597, “Design of a high affinity peptidomimetic opioid agonist from peptide pharmacophore models” (Bioorg Med Chem Lett, 1998).

In this assay the target is Mu-type opioid receptor (Rattus norvegicus, UniProt P33535). In words: Compound was tested for its ability to stimulate [35S]GTP-gamma-S, binding to membranes from C6 glioma cells stably expressing rat mu opioid receptor. In kind it is functional, cell membranes. On the technique in general: Binding of GTPγS marks nucleotide exchange on a G protein.
Sequence of Mu-type opioid receptor (P33535 whole entry): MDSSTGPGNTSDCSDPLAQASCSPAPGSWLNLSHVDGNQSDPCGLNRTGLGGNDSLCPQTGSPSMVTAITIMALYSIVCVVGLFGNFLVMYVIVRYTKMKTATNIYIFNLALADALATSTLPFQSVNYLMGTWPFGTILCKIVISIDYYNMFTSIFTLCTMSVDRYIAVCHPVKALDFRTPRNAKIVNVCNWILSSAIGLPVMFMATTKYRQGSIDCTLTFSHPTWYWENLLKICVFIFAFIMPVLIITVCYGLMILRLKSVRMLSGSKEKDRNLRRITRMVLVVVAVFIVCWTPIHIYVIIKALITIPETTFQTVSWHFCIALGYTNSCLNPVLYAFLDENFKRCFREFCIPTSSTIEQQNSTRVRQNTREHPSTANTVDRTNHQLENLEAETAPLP

One may read the EC50 as the concentration at which the effect is half-maximal. Low values mean a more potent agent, high ones a less potent agent. `CC1(C)SSC[C@@H](NC(=O)[C@@H](N)Cc2ccc(O)cc2)C(=O)N[C@@H](Cc2ccccc2)C(=O)N[C@@H]1C(N)=O` gave an EC50 of 0.0182 µM.
